For assay [1], the target named is T1, 5-HT7 receptor (Homo sapiens, UniProt P34969). Kind of assay: 5-HT7 receptor competitive binding assay. To be noted: for 5-HT7 competitive binding % Inhibition ± SD: tested at 50 μM, NA = not active.
A further assay addresses T2, 5-HT3 (Homo sapiens, UniProt P46098).
T2 sequence (P46098 24-478): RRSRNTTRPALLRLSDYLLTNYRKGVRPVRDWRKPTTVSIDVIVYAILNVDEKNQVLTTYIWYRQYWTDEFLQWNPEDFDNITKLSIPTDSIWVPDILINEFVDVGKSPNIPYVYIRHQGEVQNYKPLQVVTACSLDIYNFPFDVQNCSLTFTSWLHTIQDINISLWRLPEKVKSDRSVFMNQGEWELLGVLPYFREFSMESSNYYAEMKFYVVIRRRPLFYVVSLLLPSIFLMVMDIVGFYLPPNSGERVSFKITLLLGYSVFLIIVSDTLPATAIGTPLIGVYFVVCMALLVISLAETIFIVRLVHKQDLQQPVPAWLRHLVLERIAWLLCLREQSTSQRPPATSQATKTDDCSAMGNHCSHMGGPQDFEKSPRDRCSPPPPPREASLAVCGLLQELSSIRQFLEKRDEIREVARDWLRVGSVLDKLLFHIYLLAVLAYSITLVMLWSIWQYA
Kind of assay: MDS Pharma serotonin receptor binding, 5-HT3.

The next assay deals with 5-HT1B (Rattus norvegicus, UniProt P28564). The assay is described as follows: MDS Pharma serotonin receptor binding, 5-HT1B.
Another assay has as its target 5-HT5A (Homo sapiens, UniProt P47898). The assay is described as follows: MDS Pharma serotonin receptor binding, 5-HT5A.
Assay [2] has as its target human serotonin transporter (hSERT) (Homo sapiens, UniProt P31645). Kind of assay: cell-based.
A further assay concerns the target 5-HT2B (Homo sapiens, UniProt P41595). Kind of assay: MDS Pharma serotonin receptor binding, 5-HT2B.
The next assay deals with 5-HT4 (Cavia porcellus, UniProt O70528). The assay is described as follows: MDS Pharma serotonin receptor binding, 5-HT4.
Assay [3] deals with T1, 5-HT7 receptor. Kind of assay: Intracellular cAMP assay in 5-HT7-transfected HEK293 cells. It is filed as cell-based.
The target of another assay is 5-HT6 (Homo sapiens, UniProt P50406). Kind of assay: MDS Pharma serotonin receptor binding, 5-HT6.
Another assay addresses T3, 5-HT1A (Homo sapiens, UniProt P08908).
T3 sequence (P08908 1-422): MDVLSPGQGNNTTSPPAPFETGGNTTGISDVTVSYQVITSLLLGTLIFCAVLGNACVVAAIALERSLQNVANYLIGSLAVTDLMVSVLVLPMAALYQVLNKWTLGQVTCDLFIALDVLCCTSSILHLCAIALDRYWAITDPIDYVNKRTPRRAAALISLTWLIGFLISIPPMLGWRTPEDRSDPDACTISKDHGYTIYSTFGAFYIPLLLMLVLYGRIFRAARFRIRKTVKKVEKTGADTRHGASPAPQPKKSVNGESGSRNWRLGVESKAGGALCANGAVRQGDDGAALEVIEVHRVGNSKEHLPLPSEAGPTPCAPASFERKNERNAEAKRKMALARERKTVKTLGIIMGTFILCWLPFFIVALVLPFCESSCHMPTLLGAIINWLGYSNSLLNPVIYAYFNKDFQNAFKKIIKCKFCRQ
Kind of assay: MDS Pharma serotonin receptor binding, 5-HT1A.

A further assay deals with T4, 5-HT2C (Homo sapiens, UniProt P28335).
T4 sequence (P28335 33-458): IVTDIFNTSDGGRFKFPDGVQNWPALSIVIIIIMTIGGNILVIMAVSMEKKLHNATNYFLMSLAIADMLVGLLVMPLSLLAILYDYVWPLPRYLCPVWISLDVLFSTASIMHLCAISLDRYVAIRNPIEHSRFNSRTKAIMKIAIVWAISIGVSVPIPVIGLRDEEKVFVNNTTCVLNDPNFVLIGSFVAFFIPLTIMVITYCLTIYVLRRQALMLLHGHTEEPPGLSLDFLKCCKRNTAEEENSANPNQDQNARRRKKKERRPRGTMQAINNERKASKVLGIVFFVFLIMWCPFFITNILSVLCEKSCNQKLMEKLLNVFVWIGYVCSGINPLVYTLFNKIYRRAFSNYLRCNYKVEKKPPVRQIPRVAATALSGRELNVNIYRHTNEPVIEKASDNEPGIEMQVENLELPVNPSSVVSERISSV
Kind of assay: MDS Pharma serotonin receptor binding, 5-HT2C.

The mark [4] stands for this setting: read-out: 5-HT7 receptor binding IC50, pure compounds.

Where two headings read alike, the source gives them in different places. Bounds are passed on as bounds.

As usually defined, the IC50 is the midpoint of a concentration-inhibition curve. One may read the EC50 as the concentration that produces a half-maximal response. High values mean a less potent agent, low ones a more potent agent.

On to 23-O-acetylshengmanol-3-β-D-xyloside, for which the “5-HT7 competitive binding % Inhibition ± SD” value on 5-HT7 receptor [1] is listed as 35 ± 10%.
Still for that read-out and setting: next, 25-anhydrocimigenol-3-O- β-xyloside: 31 ± 8%.
Consider `CC(=O)O[C@@H]1C[C@@]23C[C@@]24CC[C@H](O[C@@H]2OC[C@@H](O)[C@H](O)[C@H]2O)C(C)(C)[C@@H]4CC[C@H]3[C@]2(C)C[C@@H]3O[C@@]4(C[C@@H](C)[C@@H]3[C@@]12C)OC[C@@]1(C)O[C@@H]41` [23-epi-26-deoxyactein], for which the IC50 on 5-HT7 receptor [1] (setting [4]) is no less than 100000 nM.
Consider `CC(=O)O[C@@H]1C[C@@]23C[C@@]24CC[C@H](O[C@@H]2OC[C@@H](O)[C@H](O)[C@H]2O)C(C)(C)[C@@H]4CC[C@H]3[C@]2(C)C[C@@H]3O[C@]4(C[C@@H](C)[C@@H]3[C@@]12C)OC[C@@]1(C)O[C@@H]41` [26-deoxyactein], for which the half-inhibitory concentration (IC50) at 5-HT7 receptor [1] (setting [4]) is no less than 100000 nM. Besides, the “5-HT7 competitive binding % Inhibition ± SD” value at 5-HT7 receptor [1] was found to be 38 ± 4%.
Turning to `COc1cc(/C=C/C(=O)O[C@H](C(=O)O)[C@](O)(Cc2ccc(O)c(O)c2)C(=O)O)ccc1O` [Cimicifugic acid A, cimicifugic acid A], at 5-HT7 receptor [1], the IC50 was greater than 500000 nM.
Turning to `COc1ccc(/C=C/C(=O)O[C@H](C(=O)O)[C@](O)(Cc2ccc(O)c(O)c2)C(=O)O)cc1O` [Cimicifugic acid B, cimicifugic acid B], on 5-HT7 receptor [1], the IC50 was greater than 500000 nM.
`COc1cc(/C=C/C(=O)O[C@H](C(=O)O)[C@](O)(Cc2ccc(O)cc2)C(=O)O)ccc1O` [Cimicifugic acid E, cimicifugic acid E]: the IC50 at 5-HT7 receptor [1] is greater than 500000 nM.
On 5-HT7 receptor [1], `COc1ccc(/C=C/C(=O)O[C@H](C(=O)O)[C@](O)(Cc2ccc(O)cc2)C(=O)O)cc1O` [Cimicifugic acid F, cimicifugic acid F] displayed a half-inhibitory concentration (IC50) greater than 500000 nM.
Turning to `CC(=O)O[C@@H]1C[C@@]23C[C@@]24CC[C@H](O[C@@H]2OC[C@H](O)[C@H](O)[C@H]2O)C(C)(C)[C@@H]4CC[C@H]3[C@]2(C)C[C@@H]3O[C@]4(C[C@@H](C)[C@@H]3[C@@]12C)OC[C@]1(C)O[C@H]41` [Cimiracemoside N], the “5-HT7 competitive binding % Inhibition ± SD” value at 5-HT7 receptor [1] is given as 18 ± 4%.
On the same count and under the same terms, with `CC(=O)O[C@@H]1CO[C@@H](O[C@H]2CC[C@]34C[C@]35C[C@@H](OC(C)=O)[C@]3(C)[C@H]6[C@H](C)C[C@]7(OC(O)[C@]8(C)O[C@H]78)O[C@H]6C[C@@]3(C)[C@@H]5CC[C@H]4C2(C)C)[C@H](O)[C@H]1O` (stereo partly drawn) [Cimiracemoside O] the figure was 19 ± 5%.
For `CNCCc1c[nH]c2ccc(O)cc12` [Nω-methylserotonin, 3-(2-Methylaminoethyl)indol-5-ol], the IC50 on 5-HT3 worked out at 1670 nM; at 5-HT1B it was 15 nM; on 5-HT5A, 289 nM; in assay [2], 490 nM; on 5-HT2B, 97 nM; at 5-HT4, 6700 nM. In addition, the IC50 came to 55 nM at 5-HT6; 0.023 nM on 5-HT7 receptor [1] (5-HT7 receptor binding IC50); 0.02 nM at 5-HT7 receptor [1] (IC50, 5-HT7, triplicate in three independent experiments); 2 nM at 5-HT1A; 101 nM at 5-HT2C. On 5-HT7 receptor [3], this molecule displayed an EC50 of 22 nM. The “maximum cAMP induction” value on 5-HT7 receptor [3] (at 100 nM, the highest tested concentration) is listed as 43 pmol/mL.
Turning to `O=C(/C=C/c1ccc(O)c(O)c1)O[C@H](C(=O)O)[C@](O)(Cc1ccc(O)c(O)c1)C(=O)O` [fukinolic acid], the IC50 on 5-HT7 receptor [1] came out at 100000 nM.
As to Actein (R,S), the IC50 at 5-HT7 receptor [1] (setting [4]) is no less than 100000 nM.
